According to article PMC6539072, “Diclofenac-Derived Hybrids for Treatment of Actinic Keratosis and Squamous Cell Carcinoma” (Molecules, 2019):
Entries after “also recorded” stand apart in the source; their conditions may differ.

Legend:
[1] = test system: EGF-stimulated HaCaT cells; assay: Neutral Red cell viability assay on EGF-stimulated HaCaT cells (actinic keratosis model); assay type: cell-based, human; conditions: for potency relative to diclofenac (native drugs): ratio of IC50 values on EGF-stimulated HaCaT
Experimental: (§1) The immortalized human keratinocyte (HaCaT) cells and human squamous carcinoma (A431) cells (Sigma-Aldrich, Milan, Italy) were cultured in RPMI 1640 (Euroclone, Milan, Italy) supplemented with 10% fetal bovine serum (FBS), 100 U/mL penicillin, and 100 μg/mL streptomycin (Euroclone) at 37 °C in a humidified atmosphere containing 5% CO2.
HaCaT cells under the proliferative stimulus of EGF were used as model of actinic keratosis (AK), a precancerous disease that can progress in cutaneous squamous cell carcinoma (cSCC), according to the critical role played by the EGFR/Fyn/Src/Erk pathway for promoting cSCC formation. Cells were stimulated with EGF at the concentration 5 ng/mL for whole time of treatment with test compounds (see below).
(§2) Both HaCaT (EGF-stimulated) and A431 cells were incubated for 72 h with the test compounds at concentrations in the range 0.1–100 μM.
(§3) Cell viability was measured using the Neutral Red (NR) Assay (N2889, Sigma-Aldrich, Darmstadt, Germany) as previously reported. HaCaT and A431 cell lines were seeded at a density of 5 × 10^4 cells/well in 10% FBS medium in a 96-well plate. After 24 h, test compounds, dissolved in DMSO, were diluted in sterile culture medium supplemented with EGF (HaCaT cells) or 1% FBS (A431 cells) and added into the well plate. […] Diclofenac, HT, T and hybrids 1–4 were tested. After 72 h from treatment, NR was added and cells incubated for 2 h. At the end of the incubation period, cells were washed with PBS and, then, incubated for 10 min with a NR solubilisation solution (1% acetic acid in 50% ethanol). The absorbance was measured at 540 nm using the Infinite M200 NanoQuant instrument (Tecan, Salzburg, Austria). Optical density values from vehicle-treated cells were considered as 100% cell viability.

A431 cells = assay: Neutral Red cell viability assay on A431 squamous carcinoma cells; assay type: cell-based, human; conditions: for IC50: neutral red, 0.1–100 μM, NR: not reached
Experimental: as §1, §2, §3

[2] = no reference given; cited from earlier work
[3] = In vitro cutaneous permeation through pig ear skin (Gummer-type diffusion cells); assay type: in vitro ADME; conditions: measured as hybrid 1 in receiving phase; 24 h
Description: Porcine ears skin, obtained from freshly sacrificed animals in a local slaughterhouse, was used as model. After cleaning with depurated water, full-thickness skin was removed with a scalpel from the cartilage of the outer region. The excised pig ear skin was carefully deprived of the adhering fat and subcutaneous tissue. Prior to the experiments, the pig hairs were abscised and the skin was gently washed. The skin with a thickness about 1.46 ± 0.06 mm was placed in the Gummer-type diffusion cells with the stratum corneum facing the donor compartment and an available diffusion area of […]. […]
The concentration of diclofenac and hybrid 1 in receiving fluids and in the skin samples was selectively determined by HPLC. […]
Linear regression analysis of pseudo steady state diffusion plots allowed calculation of the following parameters: steady-state flux (J, nmols/cm^2·h), given by Q/At, where Q is the amount of permeant diffusing across area A in time t; lag time (h), indicating the time taken by the drug to saturate the membrane and reach the receiving phase, calculated from the X-axis intercept values of the regression lines and the amount of drug permeated at the end of the experiment (Q24h, nmols).

[4] = EGF-stimulated HaCaT (5 ng/mL EGF), 72 h, neutral red, 0.1–100 μM, NR: not reached
[5] = Homo sapiens, EGF-stimulated HaCaT (5 ng/mL EGF), 72 h, neutral red, 0.1–100 μM, NR: not reached
[6] = Homo sapiens, A-431, A431, 72 h

IC50 (A431 cells; [6]) [µM] | Molecule | IC50 [1, 5] [µM] | further results
32 ± 1.05 | O=C(O)Cc1ccccc1Nc1c(Cl)cccc1Cl [diclofenac] | 67.1 ± 1.94 | –
13.5 ± 2.49 | O=C(Cc1ccccc1Nc1c(Cl)cccc1Cl)OCCc1ccc(O)c(O)c1 [hybrid 1, 3,4-Dihydroxyphenethyl 2-(2-((2,6-dichlorophenyl)amino)phenyl)acetate] | 3.71 ± 1.08 | potency relative to diclofenac (native drugs) [1]: about 20 fold; IC50 in A431 relative to IC50 in EGF-stimulated HaCaT (A431 cells; A431 vs EGF-stimulated HaCaT): about 4 fold; Flux [3]: did not permeate across the skin; melting point: 123 to 125 °C

The next lines start with the molecule.

Molecule | IC50 (A431 cells; [6]) [µM] | IC50 [1, 5] [µM] | further results
3-Hydroxyphenethyl 2-(2-((2,6-dichlorophenyl)amino)phenyl)acetate [hybrid 2] | – | – | IC50 [1, 4]: 16.1 ± 1.15 µM; potency relative to diclofenac (native drugs) [1]: 4 fold; IC50 (A431 cells; A431, 72 h): 27.5 ± 1.24 µM
OCCc1ccc(O)c(O)c1 [HT, hydroxytyrosol, reference compound] | > 100 | 72.3 ± 3.58 | –
OCCc1ccc(O)cc1 [T, tyrosol, reference compound] | > 100 | > 100 | IC50 ± SEM [1, 4]: not reached
O=C(O)Cc1ccccc1Nc1c(Cl)cccc1Cl [diclofenac sodium] | – | – | partition coefficient n-octanol/water, log POW [2]: 4.98
O=C(CCCOC(=O)Cc1ccccc1Nc1c(Cl)cccc1Cl)OCCc1ccc(O)c(O)c1 [hybrid 3, 3,4-Dihydroxyphenethyl 4-(2-(2-((2,6-dichlorophenyl)amino)phenyl)acetoxy)butanoate] | 30.7 ± 1.33 | 17.8 ± 1.09 | –
O=C(CCCOC(=O)Cc1ccccc1Nc1c(Cl)cccc1Cl)OCCc1ccc(O)cc1 [hybrid 4, 4-Hydroxyphenethyl 4-(2-(2-((2,6-dichlorophenyl)amino)phenyl)acetoxy)butanoate] | > 100 | > 100 | effect on cell viability (in words) ([1]; EGF-stimulated HaCaT, 72 h): antiproliferative effect lower than that of diclofenac; also recorded: not able to induce modification in cell viability; effect on cell viability (in words) (A431 cells; A431, 72 h): not able to induce modification in cell viability
